Experimental data reported in US6274620A, “Thiophene integrin inhibitors” (BioChem Pharma Inc., priority 2000, dated 2001).
Structures can show the parent of a compound that is named as a salt.

Columns and labels:
[1] = target: T1, αIIbβ3 (Homo sapiens, UniProt P05106+P08514); assay: Solid-phase assay: biotinylated-fibrinogen binding to immobilized αIIbβ3; details: biotinylated-fibrinogen 10 nM, 2 hours at 37° C, 1 mM CaCl2, read-out: IC50 αIIbβ
T1 construct: purchased Calbiochem
Experimental: Assay 1. Fibrinogen Binding to Immobilized αIIbβ3 and αvβ3
(§1) The wells of plastic microtiter plates were coated overnight at 4° C. with purified active αIIbβ3 (Calbiochem) or placental αvβ3 at 0.5 ug/mL (100 uL/well) in a buffer containing 150 mM NaCl, 20 mM Tris, pH 7.4, 1 mM MgCl2, 0.2 mM MnCl2, and including 1 mM CaCl2 for αIIbβ3 Blocking of nonspecific sites was achieved by incubating the wells with 35 mg/mL bovine serum albumin (BSA) for at least 2 hours at 37° C. Biotinylated-fibrinogen (10 nM) was added in 0.2 mL binding buffer (100 mM NaCl, 50 mM Tris, pH 7.4, 1 mM MgCl2, 0.2 mM MnCl2 and 1 mg/mL BSA including 1 mM CaCl2 for αIIbβ3) to the wells in triplicate in the absence or presence of increasing concentrations of compounds of interest (0.001-100 uM) and further incubated for 2 hours at 37° C. Nonbound fibrinogen was removed by five washes with binding buffer. Avidin conjugated to alkaline phosphatase (Sigma), diluted in binding buffer, was added and incubated for two hours at 37° C. The plates were washed five times with binding buffer, and after addition of the substrate PNPP (Pierce), the enzyme activity was measured by the absorbance at 405 nm. The concentration of inhibitor required to inhibit 50% of biotinylated-fibrinogen binding was defined as IC50 determined by a nonlinear, sigmoidal dose response variable slope from the GraphPad Prism software.

[2] = test system: B16F10; assay: Cytotoxicity (MTT), B16F10; format: cell-based; details: Mus musculus, B16-F10, 72 hours
Experimental: [The source words this procedure for another cell line and reports this cell line under the same test.] (§2) Assay 3. Cytotoxicity (MTT)
(§3) The wells of microtiter plates were seeded with 2000 cells/well T24, 2500 cells/well HT29 or 5000 cells/well HMVEC (Cell Systems) in 100 uL, followed by an overnight culture for cell adhesion. The next day, the media is supplemented with 100 uL of 10-fold dilution of compound of interest starting at 10 uM. Following culture for 72 hours, 3-(4, 5-dimethyl-2-thiazolyl)-2, 5-diphenyltetrazolium bromide (MTT; Sigma) at 2 mg/mL was added to each well (50 uL/well) and further incubated for 4 hours at 37° C. The medium was flicked out and 200 uL of a 1:1 solution of ethanol:acetone followed by 25 uL of glycine buffer (0.1 M glycine, 0.1M NaCl, pH 10.5) is added and the color measured by the absorbance at 570 nm.

[3] = test system: HT29; assay: Cytotoxicity (MTT), HT29; format: cell-based; details: Homo sapiens, HT-29, 72 hours, 2500 cells/well
Experimental: as §2, §3

[4] = target: T2, αvβ3 (Homo sapiens, UniProt P05106+P06756); assay: Solid-phase assay: biotinylated-fibrinogen binding to immobilized αvβ3; design: placental αvβ3; from tissue; host or cells: placenta; details: for IC50: Solid Phase Assay, biotinylated-fibrinogen 10 nM, 2 hours at 37° C; for Selectivity: αIIbβ3 vs αvβ3 solid phase IC50
T2 sequence (P06756 31-889 limits assumed): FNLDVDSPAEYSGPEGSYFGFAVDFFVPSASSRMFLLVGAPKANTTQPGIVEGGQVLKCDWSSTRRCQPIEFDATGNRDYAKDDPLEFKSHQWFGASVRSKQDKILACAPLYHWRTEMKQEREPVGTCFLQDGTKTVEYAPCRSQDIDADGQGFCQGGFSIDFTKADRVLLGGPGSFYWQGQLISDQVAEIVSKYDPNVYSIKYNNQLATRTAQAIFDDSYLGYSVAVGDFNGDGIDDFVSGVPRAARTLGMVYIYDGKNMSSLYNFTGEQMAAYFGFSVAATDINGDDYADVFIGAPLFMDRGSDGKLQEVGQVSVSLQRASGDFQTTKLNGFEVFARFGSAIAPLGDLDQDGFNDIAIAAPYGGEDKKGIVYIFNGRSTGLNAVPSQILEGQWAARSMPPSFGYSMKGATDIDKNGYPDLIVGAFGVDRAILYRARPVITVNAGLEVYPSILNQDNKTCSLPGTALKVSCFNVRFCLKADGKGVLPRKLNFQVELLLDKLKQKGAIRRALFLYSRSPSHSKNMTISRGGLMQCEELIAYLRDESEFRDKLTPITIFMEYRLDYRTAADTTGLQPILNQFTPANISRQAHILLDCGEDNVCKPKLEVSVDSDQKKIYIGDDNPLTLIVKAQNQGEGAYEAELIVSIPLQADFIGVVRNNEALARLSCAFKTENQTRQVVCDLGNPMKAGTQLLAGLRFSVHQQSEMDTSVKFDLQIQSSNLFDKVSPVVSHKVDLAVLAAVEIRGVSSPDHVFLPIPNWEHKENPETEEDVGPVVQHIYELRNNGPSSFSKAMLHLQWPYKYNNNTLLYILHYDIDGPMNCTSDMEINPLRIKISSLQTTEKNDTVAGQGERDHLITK
T2 sequence (P06756 891-1048 limits assumed): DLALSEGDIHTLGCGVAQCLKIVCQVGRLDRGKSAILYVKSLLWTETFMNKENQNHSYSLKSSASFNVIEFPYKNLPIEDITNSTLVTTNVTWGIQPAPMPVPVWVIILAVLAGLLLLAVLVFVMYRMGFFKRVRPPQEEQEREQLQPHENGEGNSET
T2 sequence (P05106 27-788): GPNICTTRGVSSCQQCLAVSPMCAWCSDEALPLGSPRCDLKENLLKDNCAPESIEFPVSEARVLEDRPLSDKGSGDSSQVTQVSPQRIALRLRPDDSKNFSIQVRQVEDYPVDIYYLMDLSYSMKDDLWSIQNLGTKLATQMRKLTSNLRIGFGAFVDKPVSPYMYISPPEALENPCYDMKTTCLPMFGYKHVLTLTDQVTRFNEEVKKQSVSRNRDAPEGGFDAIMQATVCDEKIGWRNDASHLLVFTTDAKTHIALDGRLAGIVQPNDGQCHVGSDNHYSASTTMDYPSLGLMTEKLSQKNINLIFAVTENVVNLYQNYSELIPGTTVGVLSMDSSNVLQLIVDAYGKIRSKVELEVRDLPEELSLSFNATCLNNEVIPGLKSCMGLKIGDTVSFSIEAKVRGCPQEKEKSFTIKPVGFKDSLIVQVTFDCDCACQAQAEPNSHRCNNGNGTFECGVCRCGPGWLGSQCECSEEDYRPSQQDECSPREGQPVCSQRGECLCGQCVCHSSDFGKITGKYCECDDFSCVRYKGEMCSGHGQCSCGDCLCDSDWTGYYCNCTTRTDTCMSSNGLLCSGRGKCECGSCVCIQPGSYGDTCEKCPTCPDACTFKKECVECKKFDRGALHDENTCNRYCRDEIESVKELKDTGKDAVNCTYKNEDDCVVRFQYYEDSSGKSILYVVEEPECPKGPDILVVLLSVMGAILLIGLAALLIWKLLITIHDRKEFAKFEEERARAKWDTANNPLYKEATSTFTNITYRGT
Experimental: as §1, with “Assay 1. Fibrinogen Binding to Immobilized αIIbβ3 and αvβ3 (Solid-Phase Assays) The wells” for “The wells”

[5] = target: T3, α5β1 (Homo sapiens, UniProt P05556+P08648); assay: Cell attachment assay, α5β1; format: cell-based; details: 1 hour at 37° C
T3 construct: Cells HT29, K562, or K562 transfected with αvβ3; endogenous in cells; host or cells: K562
T3 sequence (P08648 42-894 limits assumed): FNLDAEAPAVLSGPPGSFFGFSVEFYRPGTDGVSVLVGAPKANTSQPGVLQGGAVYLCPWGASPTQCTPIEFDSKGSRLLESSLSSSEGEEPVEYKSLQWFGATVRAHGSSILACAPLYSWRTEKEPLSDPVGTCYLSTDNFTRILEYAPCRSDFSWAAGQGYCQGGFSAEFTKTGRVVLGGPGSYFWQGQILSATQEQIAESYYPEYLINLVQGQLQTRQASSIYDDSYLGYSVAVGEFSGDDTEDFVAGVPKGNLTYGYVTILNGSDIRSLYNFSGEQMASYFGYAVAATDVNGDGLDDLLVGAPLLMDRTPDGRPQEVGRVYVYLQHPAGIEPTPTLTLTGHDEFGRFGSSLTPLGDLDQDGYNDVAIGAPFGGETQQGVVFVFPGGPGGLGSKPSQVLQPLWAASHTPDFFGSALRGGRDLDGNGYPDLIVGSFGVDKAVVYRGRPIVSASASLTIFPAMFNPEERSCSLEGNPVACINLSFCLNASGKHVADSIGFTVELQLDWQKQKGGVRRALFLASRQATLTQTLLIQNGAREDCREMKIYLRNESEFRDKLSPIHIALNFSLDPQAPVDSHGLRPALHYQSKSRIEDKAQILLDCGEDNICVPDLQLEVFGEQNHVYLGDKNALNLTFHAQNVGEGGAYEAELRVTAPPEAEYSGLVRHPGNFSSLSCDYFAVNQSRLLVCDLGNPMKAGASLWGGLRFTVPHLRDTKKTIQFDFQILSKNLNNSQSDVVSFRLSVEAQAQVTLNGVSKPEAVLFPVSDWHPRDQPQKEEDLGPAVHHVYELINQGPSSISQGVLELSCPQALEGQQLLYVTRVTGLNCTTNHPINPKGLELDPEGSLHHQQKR
T3 sequence (P08648 895-1049 limits assumed): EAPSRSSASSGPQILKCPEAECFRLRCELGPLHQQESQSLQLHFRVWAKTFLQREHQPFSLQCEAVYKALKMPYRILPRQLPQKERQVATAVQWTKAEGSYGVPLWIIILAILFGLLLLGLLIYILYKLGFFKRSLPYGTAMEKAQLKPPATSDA
T3 sequence (P05556 21-798): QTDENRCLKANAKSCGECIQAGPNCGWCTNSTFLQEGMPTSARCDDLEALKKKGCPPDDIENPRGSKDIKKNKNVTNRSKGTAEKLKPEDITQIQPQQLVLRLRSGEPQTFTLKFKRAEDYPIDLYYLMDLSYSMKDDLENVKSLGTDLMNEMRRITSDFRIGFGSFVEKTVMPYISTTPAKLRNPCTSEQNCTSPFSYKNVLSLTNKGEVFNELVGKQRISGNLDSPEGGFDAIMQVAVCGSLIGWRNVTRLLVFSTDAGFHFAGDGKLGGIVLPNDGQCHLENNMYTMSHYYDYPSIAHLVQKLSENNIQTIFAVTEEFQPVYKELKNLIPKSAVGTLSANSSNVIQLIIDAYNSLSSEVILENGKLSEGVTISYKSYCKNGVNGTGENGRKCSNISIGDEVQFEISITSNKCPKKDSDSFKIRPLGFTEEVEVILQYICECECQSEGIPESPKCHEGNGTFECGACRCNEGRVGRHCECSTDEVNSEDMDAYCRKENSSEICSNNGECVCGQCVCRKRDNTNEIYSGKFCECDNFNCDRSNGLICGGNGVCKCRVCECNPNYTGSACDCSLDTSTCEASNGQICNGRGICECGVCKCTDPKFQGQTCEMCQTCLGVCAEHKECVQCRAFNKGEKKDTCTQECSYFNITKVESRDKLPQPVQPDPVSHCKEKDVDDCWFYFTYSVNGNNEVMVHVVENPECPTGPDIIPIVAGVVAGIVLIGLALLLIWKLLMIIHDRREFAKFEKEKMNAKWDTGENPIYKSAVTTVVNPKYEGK
Experimental: (§4) The wells of 96-well plates (Immunolon) were coated, by incubation overnight at 4° C., with 5 ug/mL vitronectin, 2 ug/mL osteopontin, or fibronectin or 10 mg/mL BSA in PBS. The protein solution was flicked out and the wells were blocked with 10 mg/mL BSA (0.1 mL) for 1-2 hours at 37° C. Cells HT29, K562, or K562 transfected with αvβ3 (Blystone et al., 1994) were loaded with a fluorescent marker, 5-chloromethylfluorescein diacetate (Molecular Probes, Eugene, OR) for 1 hour at 37° C., then incubated in fresh medium without the fluorescent marker for 1 hour. Cells were lifted with trypsin-EDTA and washed two times with Hank's balanced salt solution minus cations (Sigma) supplemented with 1 mM MgCl2 Cells (75,000 cells/well) were added to coated plates in triplicate and allowed to attach at 37° C. for 1 hour in the presence or absence of specific antibodies (5 ug/mL) or 10-fold dilutions of compounds of interest starting at 10 uM. Nonadherent cells were removed by gentle washing twice with PBS. The adherent cells were solubilized with 1% triton x-100 and detected using a fluorescence plate reader (DYNEX Technologies). The number of attached cells was calculated based upon standard curves for each cell line used in the experiment. Non-specific cell attachment (attachment to wells coated with BSA) was always less than 5%.

[6] = test system: HMVEC; assay: Cytotoxicity (MTT), HMVEC; format: cell-based; details: 72 hours, 5000 cells/well
Experimental: as §2, §3

[7] = target: T2, αvβ3; assay: Cell attachment assay, αvβ3; format: cell-based; details: 1 hour at 37° C
Experimental: as §4

[8] = target: T4, αvβ5 (Homo sapiens, UniProt P06756+P18084); assay: Cell attachment assay, αvβ5; format: cell-based; details: 1 hour at 37° C
T4 construct: Cells HT29, K562, or K562 transfected with αvβ3; endogenous in cells; host or cells: HT29
Experimental: as §4

T1 sequence (P08514 32-887 limits assumed): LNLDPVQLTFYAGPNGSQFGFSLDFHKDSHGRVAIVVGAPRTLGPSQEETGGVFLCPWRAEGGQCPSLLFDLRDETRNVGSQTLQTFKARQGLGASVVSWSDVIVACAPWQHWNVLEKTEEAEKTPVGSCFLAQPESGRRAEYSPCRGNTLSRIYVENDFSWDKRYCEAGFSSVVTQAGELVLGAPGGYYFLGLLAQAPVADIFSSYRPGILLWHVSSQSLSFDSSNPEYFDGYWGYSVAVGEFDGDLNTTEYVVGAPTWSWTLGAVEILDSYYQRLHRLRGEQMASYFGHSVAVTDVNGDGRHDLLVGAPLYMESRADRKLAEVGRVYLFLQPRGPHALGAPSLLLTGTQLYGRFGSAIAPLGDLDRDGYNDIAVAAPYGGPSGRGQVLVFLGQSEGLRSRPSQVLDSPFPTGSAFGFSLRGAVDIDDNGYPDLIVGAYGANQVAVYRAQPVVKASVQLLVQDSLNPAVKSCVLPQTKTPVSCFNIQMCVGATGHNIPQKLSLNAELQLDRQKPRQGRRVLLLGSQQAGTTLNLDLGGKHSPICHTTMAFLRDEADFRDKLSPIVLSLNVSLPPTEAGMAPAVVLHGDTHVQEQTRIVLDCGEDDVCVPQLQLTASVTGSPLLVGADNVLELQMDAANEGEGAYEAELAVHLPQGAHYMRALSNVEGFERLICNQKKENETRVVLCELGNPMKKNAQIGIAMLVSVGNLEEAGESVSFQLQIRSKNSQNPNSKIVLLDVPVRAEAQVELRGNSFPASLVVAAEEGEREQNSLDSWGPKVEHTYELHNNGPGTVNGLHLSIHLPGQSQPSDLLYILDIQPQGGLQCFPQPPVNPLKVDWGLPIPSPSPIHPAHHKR
T1 sequence (P08514 891-1039 limits assumed): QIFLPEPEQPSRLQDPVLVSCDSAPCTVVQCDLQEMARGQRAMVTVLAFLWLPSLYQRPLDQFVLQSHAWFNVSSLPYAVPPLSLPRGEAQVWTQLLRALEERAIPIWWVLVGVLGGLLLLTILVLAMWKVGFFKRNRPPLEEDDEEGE
T1 sequence (P05106 27-788): as the sequence (P05106 27-788) above

Structure (SMILES)	IC50 [1]	IC50 [4]	Selectivity [4]	IC50 [5]	IC50 [7]	IC50 [8]	IC50 [2]	IC50 [3]	IC50 [6]
Cc1cc(C)c(S(=O)(=O)NC(CNC(=O)c2ccc(-c3cccc(NC(=N)N)c3)s2)C(N)=O)c(C)c1 (stereo not shown) [AC-1, 5-(3-Guanidino-phenyl)-thiophene-2-carboxylic acid [2-carbamoyl-2-(2,4,6-trimethyl-benzenesulfonylamino)-ethyl]-amide hydrochloride salt]	–	290 nM	–	–	–	–	–	–	–
Cc1cc(C)c(S(=O)(=O)NC(CNC(=O)c2ccc(-c3cccc(NC(=N)N)c3)s2)C(N)=O)c(C)c1 (stereo not shown) [AB-4, 5-(3-Guanidino-phenyl)-thiophene-2-carboxylic acid [2-carbamoyl-2-(2,4,6-trimethyl-benzenesulfonylamino)-ethyl]-amide hydrochloride salt]	–	36.3 nM	–	–	–	–	–	–	–
CCOC(=O)[C@H](CNC(=O)c1ccc(-c2cccc(NC(=N)N)c2)s1)NS(=O)(=O)c1c(C)cc(C)cc1C [AB-2, 5-(3-Guanidino-phenyl)-thiophene-2-carboxylic acid [2-carbamoyl-2-(2,4,6-trimethyl-benzenesulfonylamino)-ethyl]-carboxylic acid ethyl ester]	–	104 nM	–	–	–	–	–	–	–
N=C(N)NCc1cccc(-c2ccc(C(=O)NC[C@H](NS(=O)(=O)c3ccccc3)C(=O)O)s2)c1 [Compound E-2, 2-Benzenesulfonylamino-3-{[5-(3-guanidinomethyl-phenyl)-thiophene-2-carbonyl]-amino}-propionic acid trifluoroacetic acid salt]	0.55 nM	2.7 nM	0.2	640 nM	0.18 nM	72 nM	1300 nM	> 10000 nM	200 nM
Cc1cc(C)c(S(=O)(=O)NC(CNC(=O)c2ccc(-c3cccc(NC(=N)N)c3)s2)C(=O)Nc2nccs2)c(C)c1 (stereo not shown) [Compound X-5, 5-(3-Guanidino-phenyl)-thiophene-2-carboxylic acid [2-(thiazol-2-ylcarbamoyl)-2-(2,4,6-trimethyl-benzenesulfonylamino)-ethyl]-amide hydrochloride salt]	–	360 nM	–	–	–	–	–	–	–
N=C(N)Nc1cccc(-c2ccc(C(=O)NC[C@H](NS(=O)(=O)c3ccccc3)C(=O)O)s2)c1 [Compound K-3, 2-Benzenesulfonylamino-3-{[5-(3-guanidino-phenyl)-thiophene-2-carbonyl]-amino}-propionic acid (trifluoroacetic acid salt)]	1.4 nM	1.5 nM	1	80 nM	2.8 nM	6.4 nM	320 nM	5100 nM	45 nM

Now from value to compound, other results behind:

IC50 [1]	IC50 [4]	Selectivity [4]	IC50 [5]	IC50 [7]	IC50 [8]	Structure (SMILES)	IC50 [2]	IC50 [3]	IC50 [6]
0.54 nM	0.5 nM	1	6.1 nM	1.5 nM	6 nM	Cc1cc(C)c(S(=O)(=O)N[C@@H](CNC(=O)c2ccc(/C=C/CNC(=N)N)s2)C(=O)O)c(C)c1 [Compound U-2, (S)-3-{[5-(3-Guanidino-(E)-propenyl)-thiophene-2-carbonyl]-amino}-2-(2,4,6-trimethyl-benzenesulfonylamino)-propionic acid trifluoroacetic acid salts]	180 nM	4800 nM	26 nM
0.25 nM	8.2 nM	0.03	71 nM	2.9 nM	11 nM	Cc1cc(C)c(S(=O)(=O)N[C@@H](CNC(=O)c2ccc(-c3cccc(CNC(=N)N)c3)s2)C(=O)O)c(C)c1 [Compound F-2, 3-{[5-(3-Guanidinomethyl-phenyl)-thiophene-2-carbonyl]-amino}-2-(2,4,6-trimethyl-benzenesulfonylamino)-propionic acid trifluoroacetic acid salt]	190 nM	4600 nM	31 nM
1.1 nM	1.9 nM	0.6	34 nM	0.018 nM	1.6 nM	Cc1cc(C)c(S(=O)(=O)N[C@@H](CNC(=O)c2ccc(-c3cccc(NC(=N)N)c3)s2)C(=O)O)c(C)c1 [Compound M-3, 3-{[5-(3-Guanidino-phenyl)-thiophene-2-carbonyl]-amino}-2-(2,4,6-trimethyl-benzenesulfonylamino)-propionic acid (trifluoroacetic acid salt)]	260 nM	6900 nM	140 nM
